# Measured values as given in patent publication US12408662B2, “Hydrogen peroxide and peracid stabilization with molecules based on a pyridine carboxylic acid” (ECOLAB USA INC., priority 2018, dated 2025).
# Assay: Stability of peroxyacetic acid compositions with lower acetic acid relative to hydrogen peroxide (Example 3, FIG. 3)
# Format: physicochemical
structure (smiles),measurement,value
"O=C(O)c1cccnc1 [Niacin, 3-pyridinecarboxylic acid]",stabilization of peroxyacetic acid (in words),comparable to commonly used stabilizers
